Patent US20230203098A1, “HUMAN TRANSFERRIN RECEPTOR BINDING PEPTIDE” (priority 2020, published 2023)
Read-outs that look alike come from different tables or passages of the source. One block for each molecule: values may come before it. Where a SMILES comes first, the peptide text is derived from it. Bridges are numbered along the chain shown (N, C = ends). [ ]: non-standard residue; d: D form. The star is where a group is joined. X2 = O=C(O)c1cc(C(=O)*)ccc1-c1c2ccc(=O)cc-2oc2cc(O)ccc12; PEG12 = NCCOCCOCCOCCOCCOCCOCCOCCOCCOCCOCCOCCOCCC(=O)O; Phe(3-COOH) = N[C@@H](Cc1cccc(C(=O)O)c1)C(=O)O; NMePhe(3-Cl) = CN[C@@H](Cc1cccc(Cl)c1)C(=O)O; NMeW = CN[C@@H](Cc1c[nH]c2ccccc12)C(=O)O; Phe(3-OMe) = COc1cccc(C[C@H](N)C(=O)O)c1; NMeY = CN[C@@H](Cc1ccc(O)cc1)C(=O)O; NMeF = CN[C@@H](Cc1ccccc1)C(=O)O; Aad = N[C@@H](CCCC(=O)O)C(=O)O; Chg = N[C@H](C(=O)O)C1CCCCC1; hLys = NCCCCC[C@H](N)C(=O)O; Abu = CC[C@H](N)C(=O)O

Biological target: transferrin receptor (hTfR) (Homo sapiens, UniProt P02786)
Sequence (P02786 whole entry): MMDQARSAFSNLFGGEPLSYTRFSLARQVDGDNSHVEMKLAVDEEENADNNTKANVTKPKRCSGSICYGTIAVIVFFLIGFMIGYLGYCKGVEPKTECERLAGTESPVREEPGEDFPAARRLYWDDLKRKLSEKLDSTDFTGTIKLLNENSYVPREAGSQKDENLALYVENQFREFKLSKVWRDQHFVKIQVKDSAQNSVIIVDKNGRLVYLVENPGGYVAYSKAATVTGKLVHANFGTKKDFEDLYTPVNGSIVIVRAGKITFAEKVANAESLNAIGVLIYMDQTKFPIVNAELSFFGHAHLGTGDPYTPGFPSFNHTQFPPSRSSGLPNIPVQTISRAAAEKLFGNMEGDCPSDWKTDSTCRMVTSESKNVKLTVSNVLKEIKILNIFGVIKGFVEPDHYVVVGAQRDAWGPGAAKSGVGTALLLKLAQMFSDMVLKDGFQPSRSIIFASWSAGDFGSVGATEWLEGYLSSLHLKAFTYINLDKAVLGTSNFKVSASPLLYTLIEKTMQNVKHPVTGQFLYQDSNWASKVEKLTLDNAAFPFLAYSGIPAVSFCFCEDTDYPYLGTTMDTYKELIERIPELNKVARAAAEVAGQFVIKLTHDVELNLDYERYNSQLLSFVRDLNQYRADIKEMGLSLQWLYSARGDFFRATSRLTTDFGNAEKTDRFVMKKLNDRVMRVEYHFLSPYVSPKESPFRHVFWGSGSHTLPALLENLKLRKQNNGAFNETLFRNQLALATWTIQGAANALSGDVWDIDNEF
Experiment: Intermolecular interaction evaluation test between transferrin receptor (hTfR) and peptide by surface plasmon resonance (SPR)
Assay type: binding
Method in brief: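 Receptor was Ni-captured and EDC/NHS-fixed on an NTA chip; running buffer HEPES pH 8.0 with NaCl, Tween 20, BSA and 1.0% DMSO.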

[1] = SPR, peptides, linker-added peptides and FITC conjugates, Patent ID 203-230, read-out: KD
[2] = SPR, hTfR No. 894 variants with PEG12c linker (Table 2), read-out: KD
[3] = surface plasmon resonance, peptide vs hTfR, read-out: KD value for hTfR by SPR (class symbol)

SMILES: CC[C@H](C)[C@@H]1NC(=O)[C@H](Cc2ccc(OC)cc2)NC(=O)[C@H](Cc2ccc(O)cc2)NC(=O)[C@H](CC(N)=O)NC(=O)[C@H](Cc2c[nH]c3ccccc23)N(C)C(=O)[C@H](C(C)C)NC(=O)[C@H](Cc2cccc(Cl)c2)N(C)C(=O)[C@H](CCC(=O)O)NC(=O)[C@H](C)NC(=O)CSC[C@@H](C(=O)NCC(=O)NCC(=O)NCC(=O)NCC(=O)N[C@@H](CO)C(=O)N[C@@H](CO)C(=O)N[C@@H](CS)C(N)=O)NC(=O)[C@H](Cc2ccc(O)cc2)N(C)C(=O)[C@H](Cc2ccccc2)NC(=O)[C@@H](CCCNC(=N)N)NC(=O)[C@H](CCCNC(=N)N)NC(=O)[C@H](CCC(=O)O)NC1=O [compound 223]
Kd [1]: 1 to 100 nM

SMILES: CC[C@H](C)[C@@H]1NC(=O)[C@H](Cc2ccc(O)cc2)NC(=O)[C@H](Cc2ccc(O)cc2)NC(=O)[C@H](CC(N)=O)NC(=O)[C@H](Cc2c[nH]c3ccccc23)NC(=O)[C@H](C(C)C)NC(=O)[C@H](Cc2ccccc2)NC(=O)[C@H](C(C)C)NC(=O)[C@H](C)NC(=O)CSC[C@@H](C(=O)NCCOCCOCCOCCOCCOCCOCCOCCOCCOCCOCCOCCOCCC(=O)N[C@@H](CCCCNC(=O)c2ccc(-c3c4ccc(=O)cc-4oc4cc(O)ccc34)c(C(=O)O)c2)C(N)=O)NC(=O)[C@H](CC(N)=O)NC(=O)[C@H](CCCNC(=N)N)NC(=O)[C@@H]2CCCN2C(=O)[C@H](C(C)C)NC1=O [compound 212] ({CH2CO}-AVFVWNYYIVPRNC[PEG12]K(X2)-NH2; thioether N-14)
Kd [1]: 1 to 100 nM

SMILES: CC[C@H](C)[C@@H]1NC(=O)[C@H](Cc2ccc(O)cc2)NC(=O)[C@H](Cc2ccc(O)cc2)NC(=O)[C@H](CC(N)=O)NC(=O)[C@H](Cc2cccc(OC)c2)NC(=O)[C@H](C(C)C)NC(=O)[C@H](Cc2ccccc2)N(C)C(=O)[C@H](C(C)C)NC(=O)[C@H](C)NC(=O)CSC[C@@H](C(=O)NCCOCCOCCOCCOCCOCCOCCOCCOCCOCCOCCOCCOCCC(N)=O)NC(=O)[C@H](Cc2ccc(O)cc2)N(C)C(=O)[C@H](Cc2ccc(O)cc2)NC(=O)[C@H](CCCNC(=N)N)NC(=O)[C@H](CCCNC(=N)N)NC(=O)[C@H]([C@@H](C)CC)NC1=O [compound 113] ({CH2CO}-AV[NMeF]V[Phe(3-OMe)]NYYIIRRY[NMeY]C[PEG12]-NH2; thioether N-15)
Kd [2]: < 1 nM

SMILES: CC[C@H](C)[C@@H]1NC(=O)[C@H](Cc2ccc(O)cc2)NC(=O)[C@H](Cc2ccccc2)NC(=O)[C@H](CC(N)=O)NC(=O)[C@H](Cc2c[nH]c3ccccc23)NC(=O)[C@H](C(C)C)NC(=O)[C@H](Cc2ccccc2)N(C)C(=O)[C@H](C(C)C)NC(=O)[C@H](C)NC(=O)CSC[C@@H](C(=O)NCCOCCOCCOCCOCCOCCOCCOCCOCCOCCOCCOCCOCCC(N)=O)NC(=O)[C@H](Cc2ccc(O)cc2)N(C)C(=O)[C@H](Cc2ccc(O)cc2)NC(=O)[C@H](CCCNC(=N)N)NC(=O)[C@H](CCCNC(=N)N)NC(=O)[C@H]([C@@H](C)CC)NC1=O [compound 135] ({CH2CO}-AV[NMeF]VWNFYIIRRY[NMeY]C[PEG12]-NH2; thioether N-15)
Kd [2]: 1 to 100 nM

SMILES: CC[C@H](C)[C@@H]1NC(=O)[C@H](Cc2ccc(O)cc2)NC(=O)[C@H](Cc2ccc(O)cc2)NC(=O)[C@H](CC(N)=O)NC(=O)[C@H](Cc2c[nH]c3ccccc23)NC(=O)[C@H](C(C)C)NC(=O)[C@H](Cc2ccccc2)N(C)C(=O)[C@H](C(C)C)NC(=O)[C@H](C)NC(=O)CSC[C@@H](C(=O)NCCOCCOCCOCCOCCOCCOCCOCCOCCOCCOCCOCCOCCC(N)=O)NC(=O)[C@H](Cc2ccc(O)cc2)N(C)C(=O)[C@H](Cc2ccc(O)cc2)NC(=O)[C@@H](CCCNC(=N)N)NC(=O)[C@H](CCCNC(=N)N)NC(=O)[C@H]([C@@H](C)CC)NC1=O [compound 116]
Kd [2]: 1 to 100 nM

SMILES: CC[C@H](C)[C@@H]1NC(=O)[C@H](Cc2ccc(O)cc2)NC(=O)[C@H](Cc2ccc(O)cc2)NC(=O)[C@H](CC(N)=O)NC(=O)[C@H](Cc2c[nH]c3ccccc23)N(C)C(=O)[C@H](C(C)C)NC(=O)[C@H](Cc2ccccc2)N(C)C(=O)[C@H](C(C)C)NC(=O)[C@H](C)NC(=O)CSC[C@@H](C(=O)NCC(=O)NCC(=O)N[C@@H](CCCNC(=N)N)C(=O)N[C@@H](CO)C(=O)N[C@@H](CCC(=O)O)C(=O)N[C@@H](CO)C(=O)N[C@@H](CCCCNC(=O)C2CCC(CN3C(=O)C=CC3=O)CC2)C(N)=O)NC(=O)[C@H](Cc2ccc(O)cc2)N(C)C(=O)[C@H](Cc2ccc(O)cc2)NC(=O)[C@H](CCCNC(=N)N)NC(=O)[C@H](CCCNC(=N)N)NC(=O)[C@H]([C@@H](C)CC)NC1=O (stereo partly shown) [compound 199]
Kd (hTfR binding by SPR, hTfR No. 894 variant peptides, linker-added peptides and payload conjugates (Table 2), read-out: KD value obtained from the SPR measurement): 1 to 100 nM

SMILES: CC[C@H](C)[C@@H]1NC(=O)[C@H](Cc2ccc(OC)cc2)NC(=O)[C@H](Cc2ccc(O)cc2)NC(=O)[C@H](CC(N)=O)NC(=O)[C@H](Cc2c[nH]c3ccccc23)N(C)C(=O)[C@H](C(C)C)NC(=O)[C@H](Cc2cccc(Cl)c2)N(C)C(=O)[C@H](CCC(=O)O)NC(=O)[C@H](C)NC(=O)CSC[C@@H](C(=O)NCC(=O)NCC(=O)NCC(=O)NCC(=O)N[C@@H](CO)C(=O)N[C@@H](CO)C(=O)N[C@@H](CS)C(N)=O)NC(=O)[C@H](Cc2ccc(O)cc2)N(C)C(=O)[C@H](Cc2ccccc2)NC(=O)[C@@H](CCCNC(=N)N)NC(=O)[C@H](CCCCN)NC(=O)[C@H]([C@@H](C)CC)NC1=O [compound 229]
Kd [1]: 1 to 100 nM

SMILES: CC[C@@H]1NC(=O)CSC[C@@H](C(=O)NCCOCCOCCOCCOCCOCCOCCOCCOCCOCCOCCOCCOCCC(N)=O)NC(=O)[C@H](Cc2ccc(O)cc2)N(C)C(=O)[C@H](Cc2ccc(O)cc2)NC(=O)[C@H](CCCNC(=N)N)NC(=O)[C@H](CCCNC(=N)N)NC(=O)[C@H]([C@@H](C)CC)NC(=O)[C@H]([C@@H](C)CC)NC(=O)[C@H](Cc2ccc(O)cc2)NC(=O)[C@H](Cc2ccc(O)cc2)NC(=O)[C@H](CC(N)=O)NC(=O)[C@H](Cc2c[nH]c3ccccc23)NC(=O)[C@H](C(C)C)NC(=O)[C@H](Cc2ccccc2)N(C)C(=O)[C@H](C(C)C)NC1=O [compound 111] ({CH2CO}-[Abu]V[NMeF]VWNYYIIRRY[NMeY]C[PEG12]-NH2; thioether N-15)
Kd [2]: 1 to 100 nM

The remaining lines, values ahead:

Kd (surface plasmon resonance, peptide vs hTfR, read-out: KD value, hTfR binding by SPR (class symbol)): 1 to 100 nM
SMILES: CC[C@H](C)[C@@H]1NC(=O)[C@H](Cc2ccc(OC)cc2)NC(=O)[C@H](Cc2ccc(O)cc2)NC(=O)[C@H](CC(N)=O)NC(=O)[C@H](Cc2c[nH]c3ccccc23)N(C)C(=O)[C@H](C(C)C)NC(=O)[C@H](Cc2cccc(Cl)c2)N(C)C(=O)[C@H](C(C)C)NC(=O)[C@H](C)NC(=O)CSC[C@@H](C(N)=O)NC(=O)[C@H](Cc2ccc(O)cc2)N(C)C(=O)[C@H](Cc2ccccc2)NC(=O)[C@@H](CCCNC(=N)N)NC(=O)[C@H](CCCNC(=N)N)NC(=O)[C@H](CCC(=O)N[C@H](CCC(=O)O)C(=O)O)NC1=O [compound 347] ({CH2CO}-AV[NMePhe(3-Cl)]V[NMeW]NYY(Me)IE(dE)R[dR]F[NMeY]C-NH2; thioether N-15)

Kd (SPR, hTfR, class symbols A-D, read-out: KD): 1 to 100 nM
SMILES: CC[C@H](C)[C@@H]1NC(=O)[C@H](Cc2cccc(C(=O)O)c2)NC(=O)[C@H](Cc2ccc(O)cc2)NC(=O)[C@H](CC(N)=O)NC(=O)[C@H](Cc2c[nH]c3ccccc23)N(C)C(=O)[C@H](C(C)C)NC(=O)[C@H](Cc2cccc(Cl)c2)N(C)C(=O)[C@H](C(C)C)NC(=O)[C@H](C)NC(=O)CSC[C@@H](C(N)=O)NC(=O)[C@H](Cc2ccc(O)cc2)N(C)C(=O)[C@H](Cc2ccccc2)NC(=O)[C@@H](CCCNC(=N)N)NC(=O)[C@H](CCCNC(=N)N)NC(=O)[C@H]([C@@H](C)CC)NC1=O [compound 458] ({CH2CO}-AV[NMePhe(3-Cl)]V[NMeW]NY[Phe(3-COOH)]IIR[dR]F[NMeY]C-NH2; thioether N-15)

Kd (binding to hTfR by SPR, Table 2 peptides, read-out: KD value (SPR) class): 1 to 100 nM
SMILES: CC[C@H](C)[C@@H]1NC(=O)[C@H](C2CCCCC2)NC(=O)[C@H](Cc2ccc(O)cc2)NC(=O)[C@H](Cc2ccc(O)cc2)NC(=O)[C@H](CC(N)=O)NC(=O)[C@H](Cc2c[nH]c3ccccc23)NC(=O)[C@H](C(C)C)NC(=O)[C@H](Cc2ccccc2)N(C)C(=O)[C@H](C(C)C)NC(=O)[C@H](C)NC(=O)CSC[C@@H](C(=O)NCCOCCOCCOCCOCCOCCOCCOCCOCCOCCOCCOCCOCCC(N)=O)NC(=O)[C@H](Cc2ccc(O)cc2)N(C)C(=O)[C@H](Cc2ccc(O)cc2)NC(=O)[C@H](CCCNC(=N)N)NC(=O)[C@H](CCCNC(=N)N)NC1=O [compound 283] ({CH2CO}-AV[NMeF]VWNYY[Chg]IRRY[NMeY]C[PEG12]-NH2; thioether N-15)

Kd [3]: 1 to 100 nM
SMILES: CC[C@H](C)[C@@H]1NC(=O)[C@H](Cc2ccc(O)cc2)NC(=O)[C@H](Cc2ccc(O)cc2)NC(=O)[C@H](CC(N)=O)NC(=O)[C@H](Cc2c[nH]c3ccccc23)N(C)C(=O)[C@H](C(C)C)NC(=O)[C@H](Cc2cccc(Cl)c2)N(C)C(=O)[C@@H]2CCC(=O)N3CCC[C@@H]3C(=O)NCCCC[C@H](NC(=O)[C@H]([C@@H](C)CC)NC1=O)C(=O)N[C@@H](CCCNC(=N)N)C(=O)N[C@@H](Cc1ccc(O)cc1)C(=O)N(C)[C@@H](Cc1ccc(O)cc1)C(=O)N[C@H](C(N)=O)CSCC(=O)N[C@@H](C)C(=O)N2 [compound 416]

Kd [3]: 1 to 100 nM
SMILES: CC[C@H](C)[C@@H]1NC(=O)[C@H](Cc2ccc(OC)cc2)NC(=O)[C@H](Cc2ccc(O)cc2)NC(=O)[C@H](CC(N)=O)NC(=O)[C@H](Cc2c[nH]c3ccccc23)N(C)C(=O)[C@H](C(C)C)NC(=O)[C@H](Cc2cccc(Cl)c2)N(C)C(=O)[C@@H]2CCCC(=O)NCCCCC[C@H](NC(=O)[C@H]([C@@H](C)CC)NC1=O)C(=O)N[C@H](CCCNC(=N)N)C(=O)N[C@@H](Cc1ccccc1)C(=O)N(C)[C@@H](Cc1ccc(O)cc1)C(=O)N[C@H](C(N)=O)CSCC(=O)N[C@@H](C)C(=O)N2 [compound 418] ({CH2CO}-A[Aad][NMePhe(3-Cl)]V[NMeW]NYY(Me)II[hLys][dR]F[NMeY]C-NH2; lactam 2-11 (inferred); thioether N-15 (inferred))
